These results are taken from US11382918B2, “Methods for treating Huntington's Disease” (PTC Therapeutics, Inc., priority 2017, dated 2022).

This test has as its system Endogenous Huntingtin Protein (HTT). The test can be described thus: Endogenous Huntingtin Protein Assay (ELISA-based MSD electrochemiluminescence). It is filed as cell-based. The following applies: Table 1. How it is done: Compounds of Formula (I) were tested using the Meso Scale Discovery (MSD) Assay provided in International Application No. PCT/US2016/066042, filed on Dec. 11, 2016 and claiming priority to U.S. Provisional Application 62/265,652 filed on Dec. 10, 2015, published as International Publication No. WO 2017/100726 on Jun. 15, 2017, the entire contents of which are incorporated herein by reference.
The Endogenous Huntingtin Protein assay used in Example 1 was developed using the ELISA-based MSD electrochemiluminescence assay platform.
Endogenous Huntingtin Protein Assay
Meso Scale Discovery (MSD) 96-well or 384-well plates were coated overnight at 4° C. with MW1 (expanded polyglutamine) or MAB2166 monoclonal antibody (for capture) at a concentration of 1 μg/mL in PBS (30 μL per well). Plates were then washed three times with 300 µL wash buffer (0.05% Tween-20 in PBS) and blocked (100 μL blocking buffer; 5% BSA in PBS) for 4-5 hours at room temperature with rotational shaking and then washed three times with wash buffer.
Samples (25 μL) were transferred to the antibody-coated MSD plate and incubated overnight at 4° C. After removal of the lysates, the plate was washed three times with wash buffer, and 25 μL of #5656S (Cell signaling; rabbit monoclonal) secondary antibody (diluted to 0.25 μg/mL in 0.05% Tween-20 in blocking buffer) was added to each well and incubated with shaking for 1 Hour at room temperature. Following incubation with the secondary antibody, the wells were rinsed with wash buffer after which 25 μL of goat anti-rabbit SULFO TAG secondary detection antibody (required aspect of the MSD system) (diluted to 0.25 μg/mL in 0.05% Tween-20 in blocking buffer) was added to each well and incubated with shaking for 1 hour at room temperature. After rinsing three times with wash buffer, 150 μL of read buffer T with surfactant (MSD) were added to each empty well, and the plate was imaged on a SI 6000 imager (MSD) according to manufacturers' instructions provided for 96- or 384-well plates.
As to `COc1cnc(-c2cc(=O)n3cc(N4CCNCC4)ccc3n2)cc1OC` [compound 199, 2-(4,5-dimethoxypyridin-2-yl)-7-(piperazin-1-yl)-4H-pyrido[1,2-a]pyrimidin-4-one], the IC50 is 3 to 33 µM.
The result for `Cc1cn2cc(-c3cc(=O)n4cc(N5CCNCC5)ccc4n3)cc(F)c2n1` [compound 209, 2-(8-fluoro-2-methylimidazo[1,2-a]pyridin-6-yl)-7-(piperazin-1-yl)-4H-pyrido[1,2-a]pyrimidin-4-one] reads 0.1 to 0.5 µM; that for `Cc1nc2ccc(-c3cc(=O)n4cc(N5CCNCC5)ccc4n3)cc2s1` [compound 219, 2-(2-methyl-1,3-benzothiazol-6-yl)-7-(piperazin-1-yl)-4H-pyrido[1,2-a]pyrimidin-4-one], 3 to 33 µM; that for `O=c1cc(-c2cccnc2)nc2ccc(N3CCNCC3)cn12` [compound 228, 7-(piperazin-1-yl)-2-(pyridin-3-yl)-4H-pyrido[1,2-a]pyrimidin-4-one], 3 to 33 µM.
The result for `COc1cncc(-c2cc(=O)n3cc(N4CCNCC4)ccc3n2)c1` [compound 229, 2-(5-methoxypyridin-3-yl)-7-(piperazin-1-yl)-4H-pyrido[1,2-a]pyrimidin-4-one] reads 3 to 33 µM.
As for `Cc1cn2nc(-c3cc(=O)n4cc(N5CCN(C)[C@@H](C)C5)ccc4n3)cc2c(C)n1` [compound 258, 7-[(3S)-3,4-dimethylpiperazin-1-yl]-2-(4,6-dimethylpyrazolo[1,5-a]pyrazin-2-yl)-4H-pyrido[1,2-a]pyrimidin-4-one], the figure is 3 to 33 µM; as for `Cc1cn2nc(-c3cc(=O)n4cc(N5C[C@@H](C)N(C)[C@@H](C)C5)ccc4n3)cc2c(C)n1` [compound 259, 2-(4,6-dimethylpyrazolo[1,5-a]pyrazin-2-yl)-7-[(3R,5S)-3,4,5-trimethylpiperazin-1-yl]-4H-pyrido[1,2-a]pyrimidin-4-one], 3 to 33 µM; as for `COc1ccc(-c2cc(=O)n3cc(N4CCC(N(C)C)CC4)cc(C)c3n2)cc1OC` [compound 261, 2-(3,4-dimethoxyphenyl)-7-[4-(dimethylamino)piperidin-1-yl]-9-methyl-4H-pyrido[1,2-a]pyrimidin-4-one], 3 to 33 µM.
For `Cc1cn2cc(-c3ccc4nc(N5CCNCC5)cc(=O)n4c3)cc(F)c2n1` [compound 268, 7-(8-fluoro-2-methylimidazo[1,2-a]pyridin-6-yl)-2-(piperazin-1-yl)-4H-pyrido[1,2-a]pyrimidin-4-one], the half-inhibitory concentration (IC50) fell in the range of 3 to 33 µM.
The result for `Cc1cn2cc(-c3cc(=O)n4cc(N5CCN(C)CC5)ccc4n3)cc(F)c2n1` [compound 269, 2-(8-fluoro-2-methylimidazo[1,2-a]pyridin-6-yl)-7-(4-methylpiperazin-1-yl)-4H-pyrido[1,2-a]pyrimidin-4-one] reads 0.5 to 1 µM; that for `Cc1cn2cc(-c3cc(=O)n4cc(N5CCN6CCC[C@H]6C5)ccc4n3)cc(F)c2n1` [compound 271, 2-(8-fluoro-2-methylimidazo[1,2-a]pyridin-6-yl)-7-[(8aS)-hexahydropyrrolo[1,2-a]pyrazin-2(1H)-yl]-4H-pyrido[1,2-a]pyrimidin-4-one], 1 to 3 µM; that for `Cc1cn2cc(-c3cc(=O)n4cc(N5CCN6CCC[C@@H]6C5)ccc4n3)cc(F)c2n1` [compound 272, 2-(8-fluoro-2-methylimidazo[1,2-a]pyridin-6-yl)-7-[(8aR)-hexahydropyrrolo[1,2-a]pyrazin-2(1H)-yl]-4H-pyrido[1,2-a]pyrimidin-4-one], 0.5 to 1 µM.
The result for `Cc1cn2cc(-c3cc(=O)n4cc(N5CCNCC5)ccc4n3)cc(Cl)c2n1` [compound 287, 2-(8-chloro-2-methylimidazo[1,2-a]pyridin-6-yl)-7-(piperazin-1-yl)-4H-pyrido[1,2-a]pyrimidin-4-one] reads 0.1 to 0.5 µM.
As for `Cc1nc2ccc(-c3cc(=O)n4cc(C5=CCNCC5)ccc4n3)cc2o1` [compound 302, 2-(2-methyl-1,3-benzoxazol-6-yl)-7-(1,2,3,6-tetrahydropyridin-4-yl)-4H-pyrido[1,2-a]pyrimidin-4-one], the figure is 0.1 to 0.5 µM; as for `Cc1nc2c(F)cc(-c3cc(=O)n4cc(N5CCNCC5)ccc4n3)cc2o1` [compound 305, 2-(4-fluoro-2-methyl-1,3-benzoxazol-6-yl)-7-(piperazin-1-yl)-4H-pyrido[1,2-a]pyrimidin-4-one], 0.1 to 0.5 µM.
For the compound `Cc1nc2c(F)cc(-c3cc(=O)n4cc(N5CCN[C@@H](C)C5)ccc4n3)cc2o1` [compound 306, 2-(4-fluoro-2-methyl-1,3-benzoxazol-6-yl)-7-[(3S)-3-methylpiperazin-1-yl]-4H-pyrido[1,2-a]pyrimidin-4-one], the IC50 is 0.1 to 0.5 µM.
`Cc1nc2c(F)cc(-c3cc(=O)n4cc(N5CCN(C)CC5)ccc4n3)cc2o1` [compound 308, 2-(4-fluoro-2-methyl-1,3-benzoxazol-6-yl)-7-(4-methylpiperazin-1-yl)-4H-pyrido[1,2-a]pyrimidin-4-one]: the IC50 was in the range of 0.5 to 1 µM.
As for `CCN1CCN(c2ccc3nc(-c4cc(F)c5nc(C)oc5c4)cc(=O)n3c2)CC1` [compound 309, 7-(4-ethylpiperazin-1-yl)-2-(4-fluoro-2-methyl-1,3-benzoxazol-6-yl)-4H-pyrido[1,2-a]pyrimidin-4-one], the figure is 1 to 3 µM.
As to `CCN1CC=C(c2ccc3nc(-c4cc(F)c5nc(C)oc5c4)cc(=O)n3c2)CC1` [compound 318, 7-(1-ethyl-1,2,3,6-tetrahydropyridin-4-yl)-2-(4-fluoro-2-methyl-1,3-benzoxazol-6-yl)-4H-pyrido[1,2-a]pyrimidin-4-one], the IC50 lay within 1 to 3 µM.
As for `Cc1cn2nc(-c3cc(=O)n4cc(N5CCN6CCC[C@H]6C5)ccc4n3)cc2c(C)n1` [compound 336, 2-(4,6-dimethylpyrazolo[1,5-a]pyrazin-2-yl)-7-[(8aS)-hexahydropyrrolo[1,2-a]pyrazin-2(1H)-yl]-4H-pyrido[1,2-a]pyrimidin-4-one], the figure is 3 to 33 µM.
As for `Cc1cn2nc(-c3cc(=O)n4cc(N5CCN6CCC[C@@H]6C5)ccc4n3)cc2c(C)n1` [compound 337, 2-(4,6-dimethylpyrazolo[1,5-a]pyrazin-2-yl)-7-[(8aR)-hexahydropyrrolo[1,2-a]pyrazin-2(1H)-yl]-4H-pyrido[1,2-a]pyrimidin-4-one], the figure is 3 to 33 µM; as for `Cc1cn2nc(-c3cc(=O)n4cc(C5=CCN(C)CC5)ccc4n3)cc2c(C)n1` [compound 350, 2-(4,6-dimethylpyrazolo[1,5-a]pyrazin-2-yl)-7-(1-methyl-1,2,3,6-tetrahydropyridin-4-yl)-4H-pyrido[1,2-a]pyrimidin-4-one], 3 to 33 µM.
As for `CCN1CC=C(c2ccc3nc(-c4cc5c(C)nc(C)cn5n4)cc(=O)n3c2)CC1` [compound 351, 2-(4,6-dimethylpyrazolo[1,5-a]pyrazin-2-yl)-7-(1-ethyl-1,2,3,6-tetrahydropyridin-4-yl)-4H-pyrido[1,2-a]pyrimidin-4-one], the IC50 is 3 to 33 µM.
The result for `Cc1cn2nc(-c3cc(=O)n4cc(C5=CCN(C6CCC6)CC5)ccc4n3)cc2c(C)n1` [compound 356, 7-(1-cyclobutyl-1,2,3,6-tetrahydropyridin-4-yl)-2-(4,6-dimethylpyrazolo[1,5-a]pyrazin-2-yl)-4H-pyrido[1,2-a]pyrimidin-4-one] reads 3 to 33 µM; that for `Cc1cn2nc(-c3cc(=O)n4cc(N5C[C@@H]6C[C@H]5CN6C)ccc4n3)cc2c(C)n1` [compound 400, 2-(4,6-dimethylpyrazolo[1,5-a]pyrazin-2-yl)-7-[(1S,4S)-5-methyl-2,5-diazabicyclo[2.2.1]hept-2-yl]-4H-pyrido[1,2-a]pyrimidin-4-one], 3 to 33 µM.
The result for `CCN1C[C@@H]2C[C@H]1CN2c1ccc2nc(-c3cc4c(C)nc(C)cn4n3)cc(=O)n2c1` [compound 401, 2-(4,6-dimethylpyrazolo[1,5-a]pyrazin-2-yl)-7-[(1S,4S)-5-ethyl-2,5-diazabicyclo[2.2.1]hept-2-yl]-4H-pyrido[1,2-a]pyrimidin-4-one] reads 3 to 33 µM.
For the compound `Cc1cn2cc(-c3ccc4nc(C5CCNCC5)cc(=O)n4c3)ccc2n1` [compound 409, 7-(2-methylimidazo[1,2-a]pyridin-6-yl)-2-(piperidin-4-yl)-4H-pyrido[1,2-a]pyrimidin-4-one], the IC50 is 1 to 3 µM.
The result for `Cc1cn2cc(-c3ccc4nc(C5CCNCC5)cc(=O)n4c3)cc(F)c2n1` [compound 410, 7-(8-fluoro-2-methylimidazo[1,2-a]pyridin-6-yl)-2-(piperidin-4-yl)-4H-pyrido[1,2-a]pyrimidin-4-one] reads 0.5 to 1 µM; that for `Cc1cn2cc(-c3cc(=O)n4cc(N5CCN(C6CC6)CC5)ccc4n3)cc(F)c2n1` [compound 412, 7-(4-cyclopropylpiperazin-1-yl)-2-(8-fluoro-2-methylimidazo[1,2-a]pyridin-6-yl)-4H-pyrido[1,2-a]pyrimidin-4-one], 3 to 33 µM.
